According to publication PMC12454493, “Insight on novel sulfamoylphenyl pyrazole derivatives as anticancer carbonic anhydrase inhibitors” (Molecular Diversity, 2024):

What was measured:
786-0 = assay: NCI-60 one-dose SRB screen (Renal Cancer); type: cell-based; conditions: Homo sapiens, single dose 10 µM, 48 h, read-out: Growth inhibition percent (GI %)
Description: (§1) The National Cancer Institute (NCI) Developmental Therapeutic Program (www.dtp.nci.nih.gov) selected the 20 novel synthesized compounds 4a-e, 5a-e, 6a-c, 9a-e, 10 and 11 to test for their anticancer activity at a single dose of 10 µM using SRB assay. […] Supplementary Data S3; Table S1 presents the detailed screening results of the most promising compounds. The preliminary screening’s detailed results for the remaining compounds are elucidated in the (Supplementary Data S3; Table S2).
(§2) The guidelines of the Drug Evaluation Branch’s protocol at the NCI in Bethesda served as the basis for the in vitro anticancer screening assays. at one dose 10 µM against a panel of 60 cancer cell lines. The human tumor cell lines used belonged to nine panels: leukemia, melanoma, lung, colon, CNS, ovarian, renal, prostate and breast cancers using the sulforhodamine B (SRB) assay in a 48 h drug exposure protocol.

RXF 393 = assay: NCI-60 one-dose SRB screen (Renal Cancer); type: cell-based; conditions: Homo sapiens, single dose 10 µM, 48 h, read-out: Growth inhibition percent (GI %)
Description: as §1, §2

hCA XII = hCA XII (Homo sapiens, UniProt O43570); assay: CA inhibitory activity, spectrophotometric p-NPA assay; type: biochemical; conditions: p-NPA substrate, pH 7.5, 25 °C, triplicate; read-out: IC50 (µM) ± SD hCA XII
Sequence of hCA XII (O43570 25-354): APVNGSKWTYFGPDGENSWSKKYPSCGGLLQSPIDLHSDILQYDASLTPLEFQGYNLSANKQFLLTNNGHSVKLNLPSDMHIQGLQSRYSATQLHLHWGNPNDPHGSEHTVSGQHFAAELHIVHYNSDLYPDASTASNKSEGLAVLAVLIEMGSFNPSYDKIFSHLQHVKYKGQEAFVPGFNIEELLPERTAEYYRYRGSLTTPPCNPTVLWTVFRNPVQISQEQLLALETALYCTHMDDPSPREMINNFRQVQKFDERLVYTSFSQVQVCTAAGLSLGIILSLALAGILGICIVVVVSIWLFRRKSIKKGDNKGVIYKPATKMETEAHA
Description: The software used to calculate CA IC50 along with statistical analysis of the results is GraphPad Prism 9.00. Results were estimated by using one-way ANOVA and the Bonferroni’s multiple comparisons posthoc test was performed (P < 0.05) [46]
Carbonic anhydrase inhibitory activity:
The spectrophotometric assay was conducted in HEPES-Tris buffer, NaCl of pH 7.5 (20mM) at 25◦C. Each inhibitory well-consisted of 50 μL of assay buffer solution, 20 μL of hCA enzyme solution (20 ng/μL in Assay Buffer), and 50 μL of test compound in HPLC grade DMSO (maintain 10% of the final concentration). The mixture solution was
Substrate p-nitrophenyl acetate (p-NPA) (0.7mM) was prepared in HPLC grade methanol and the reaction was started by adding 20 μL to a well in a 96-well-plate. The amount of product formed was measured for 30 min continuously at 1 min intervals at 400 nm in a 96-well-plate using xMARK microplate spectrophotometer, Bio-Rad (USA). The activity of the controlled compound was taken as 100%. All experiments were carried out in triplicates of each used concentration, and results are represented as a

NCI/ADR-RES = assay: NCI-60 one-dose SRB screen (Ovarian cancer); type: cell-based; conditions: Homo sapiens, single dose 10 µM, 48 h, read-out: Growth inhibition percent (GI %)
Description: as §1, §2

OVCAR-4 = assay: NCI-60 one-dose SRB screen (Ovarian cancer); type: cell-based; conditions: Homo sapiens, single dose 10 µM, 48 h, read-out: Growth inhibition percent (GI %)
Description: as §1, §2

OVCAR-5 = assay: NCI-60 one-dose SRB screen (Ovarian cancer); type: cell-based; conditions: Homo sapiens, single dose 10 µM, 48 h, read-out: Growth inhibition percent (GI %)
Description: as §1, §2

IGROV1 = assay: NCI-60 one-dose SRB screen (Ovarian cancer); type: cell-based; conditions: Homo sapiens, IGROV-1, single dose 10 µM, 48 h, read-out: Growth inhibition percent (GI %)
Description: as §1, §2

OVCAR-8 = assay: NCI-60 one-dose SRB screen (Ovarian cancer); type: cell-based; conditions: Homo sapiens, single dose 10 µM, 48 h, read-out: Growth inhibition percent (GI %)
Description: as §1, §2

SK-OV-3 = assay: NCI-60 one-dose SRB screen (Ovarian cancer); type: cell-based; conditions: Homo sapiens, single dose 10 µM, 48 h, read-out: Growth inhibition percent (GI %)
Description: as §1, §2

OVCAR-3 = assay: NCI-60 one-dose SRB screen (Ovarian cancer); type: cell-based; conditions: Homo sapiens, single dose 10 µM, 48 h, read-out: Growth inhibition percent (GI %)
Description: as §1, §2

PC-3 = assay: NCI-60 one-dose SRB screen (Prostate Cancer); type: cell-based; conditions: Homo sapiens, single dose 10 µM, 48 h, read-out: Growth inhibition percent (GI %)
Description: as §1, §2

DU-145 = assay: NCI-60 one-dose SRB screen (Prostate Cancer); type: cell-based; conditions: Homo sapiens, single dose 10 µM, 48 h, read-out: Growth inhibition percent (GI %)
Description: as §1, §2

EKVX = assay: NCI-60 one-dose SRB screen (Non-Small Cell Lung Cancer); type: cell-based; conditions: Homo sapiens, single dose 10 µM, 48 h, read-out: Growth inhibition percent (GI %)
Description: as §1, §2

A549/ATCC = assay: as above; type: cell-based; conditions: Homo sapiens, single dose 10 µM, 48 h, read-out: Growth inhibition percent (GI %)
Description: as §1, §2

HOP-92 = assay: as above; type: cell-based; conditions: Homo sapiens, single dose 10 µM, 48 h, read-out: Growth inhibition percent (GI %)
Description: as §1, §2

NCI-H226 = assay: as above; type: cell-based; conditions: Homo sapiens, single dose 10 µM, 48 h, read-out: Growth inhibition percent (GI %)
Description: as §1, §2

NCI-H322M = assay: as above; type: cell-based; conditions: Homo sapiens, single dose 10 µM, 48 h, read-out: Growth inhibition percent (GI %)
Description: as §1, §2

HOP-62 = assay: as above; type: cell-based; conditions: Homo sapiens, single dose 10 µM, 48 h, read-out: Growth inhibition percent (GI %)
Description: as §1, §2

NCI-H522 = assay: as above; type: cell-based; conditions: Homo sapiens, single dose 10 µM, 48 h, read-out: Growth inhibition percent (GI %)
Description: as §1, §2

NCI-H23 = assay: as above; type: cell-based; conditions: Homo sapiens, single dose 10 µM, 48 h, read-out: Growth inhibition percent (GI %)
Description: as §1, §2

NCI-H460 = assay: as above; type: cell-based; conditions: Homo sapiens, single dose 10 µM, 48 h, read-out: Growth inhibition percent (GI %)
Description: as §1, §2

UACC-62 = assay: NCI-60 one-dose SRB screen (Melanoma); type: cell-based; conditions: Homo sapiens, single dose 10 µM, 48 h, read-out: Growth inhibition percent (GI %)
Description: as §1, §2

LOX IMVI = assay: NCI-60 one-dose SRB screen (Melanoma); type: cell-based; conditions: Homo sapiens, single dose 10 µM, 48 h, read-out: Growth inhibition percent (GI %)
Description: as §1, §2

SK-MEL-28 = assay: NCI-60 one-dose SRB screen (Melanoma); type: cell-based; conditions: Homo sapiens, single dose 10 µM, 48 h, read-out: Growth inhibition percent (GI %)
Description: as §1, §2

MALME-3M = assay: NCI-60 one-dose SRB screen (Melanoma); type: cell-based; conditions: Homo sapiens, single dose 10 µM, 48 h, read-out: Growth inhibition percent (GI %)
Description: as §1, §2

M14 = assay: NCI-60 one-dose SRB screen (Melanoma); type: cell-based; conditions: Homo sapiens, single dose 10 µM, 48 h, read-out: Growth inhibition percent (GI %)
Description: as §1, §2

MDA-MB-435 = assay: NCI-60 one-dose SRB screen (Melanoma); type: cell-based; conditions: Homo sapiens, single dose 10 µM, 48 h, read-out: Growth inhibition percent (GI %)
Description: as §1, §2

SK-MEL-5 = assay: NCI-60 one-dose SRB screen (Melanoma); type: cell-based; conditions: Homo sapiens, single dose 10 µM, 48 h, read-out: Growth inhibition percent (GI %)
Description: as §1, §2

UACC-257 = assay: NCI-60 one-dose SRB screen (Melanoma); type: cell-based; conditions: Homo sapiens, single dose 10 µM, 48 h, read-out: Growth inhibition percent (GI %)
Description: as §1, §2

SK-MEL-2 = assay: NCI-60 one-dose SRB screen (Melanoma); type: cell-based; conditions: Homo sapiens, single dose 10 µM, 48 h, read-out: Growth inhibition percent (GI %)
Description: as §1, §2

Compound: Cc1ccc(-c2nn(-c3ccc(S(N)(=O)=O)cc3)cc2C(=O)OCC(=O)Nc2ccc(S(N)(=O)=O)cc2)cc1 [Compound 4b, 2-Oxo-2-[(4-sulfamoylphenyl)amino] ethyl 1-(4-sulfamoylphenyl)-3-(p-tolyl)-1H-pyrazole-4-carboxylate]
- inhibition at 10 µM (786-0): 9.87%
- inhibition at 10 µM (RXF 393): < 5%
- IC50 (hCA XII): 0.17 ± 0.006 µM
- inhibition at 10 µM (NCI/ADR-RES): < 5%
- inhibition at 10 µM (OVCAR-4): < 5%
- inhibition at 10 µM (OVCAR-5): 5.99%
- inhibition at 10 µM (IGROV1): < 5%
- inhibition at 10 µM (OVCAR-8): < 5%
- inhibition at 10 µM (SK-OV-3): < 5%
- inhibition at 10 µM (OVCAR-3): < 5%
- inhibition at 10 µM (PC-3): < 5%
- inhibition at 10 µM (DU-145): < 5%
- inhibition at 10 µM (EKVX): < 5%
- inhibition at 10 µM (A549/ATCC): 7.63%
- inhibition at 10 µM (HOP-92): < 5%
- inhibition at 10 µM (NCI-H226): < 5%
- inhibition at 10 µM (NCI-H322M): 6.16%
- inhibition at 10 µM (HOP-62): < 5%
- inhibition at 10 µM (NCI-H522): 25.6%
- inhibition at 10 µM (NCI-H23): < 5%
- inhibition at 10 µM (NCI-H460): < 5%
- inhibition at 10 µM (UACC-62): < 5%
- inhibition at 10 µM (LOX IMVI): < 5%
- inhibition at 10 µM (SK-MEL-28): < 5%
- inhibition at 10 µM (MALME-3M): < 5%
- inhibition at 10 µM (M14): < 5%
- inhibition at 10 µM (MDA-MB-435): < 5%
- inhibition at 10 µM (SK-MEL-5): < 5%
- inhibition at 10 µM (UACC-257): 5.42%
- inhibition at 10 µM (SK-MEL-2): 8.94%
